The numbers were not newly measured in patent US10545077B2, “Solid phase microextraction coating” (JP SCIENTIFIC LIMITED, priority 2016, dated 2020), which cites them from elsewhere.

For the compound `CC(C)NCC(O)COc1ccc(COCCOC(C)C)cc1` (stereo not drawn) [Bisoprolol], the LogP (commonly a log measure of how a compound divides between an organic and an aqueous phase) is 1.87.

With `CCCC1O[C@@H]2C[C@H]3[C@@H]4CCC5=CC(=O)C=C[C@]5(C)[C@H]4[C@@H](O)C[C@]3(C)[C@]2(C(=O)CO)O1` (stereo partly drawn) [Budesonide], the LogP is on record as 2.42.

On to `C[C@]12C=CC(=O)C=C1CC[C@@H]1[C@@H]2[C@@H](O)C[C@@]2(C)[C@H]1CC[C@]2(O)C(=O)CO` [Prednisolone], for which the LogP is 1.66.
